Assay results taken from patent US9120762B2, “Salts of bicyclo-substituted pyrazolon azo derivatives, preparation method and use thereof” (Jiangsu Hengrui Medicine Co., Ltd., priority 2009, dated 2015).

Legend:
[1] = Pharmacokinetics assay in Beagle dogs; type: in vivo; conditions: for Vd/F / AUC / CL/F / half-life / MRT / Cmax / Tmax: male, beagle, dog, plasma, po; for Vd/F: read-out: Apparent Distribution Volume Vz/F; for AUC: read-out: Area Under Curve AUC; for CL/F: read-out: Clearance CL/F (converted); for half-life: read-out: Half-Life t1/2 (converted); for MRT: read-out: Mean Residence Time MRT; for Cmax: read-out: Plasma Conc. Cmax; for Tmax: read-out: Time to peak Tmax
Experimental: The pharmacokinetic behavior of the compounds of the present disclosure was studied and evaluated in Beagle dogs.
12 Healthy adult Beagles dogs, male, were purchased from Suzhou Xishan Drug Research and Development Colo., LTD. License number: SCXK (Suzhou) 2007-0005.
The test compound was diluted with 0.5% sodium carboxymethyl cellulose to 2.5 mg/mL (calculated as the free acid form) of suspension before use.
12 Healthy adult Beagles dogs, male, were divided into 4 groups. After an overnight fast, the dogs were administered intragastrically at a dose of 5.0 mg/kg (calculated as the free acid form), at a volume of 2 mL/kg.
Blood samples (1.2 mL) were taken from vein of forelegs at pre administration and at 0.25, 0.5, 1.0, 1.5, 2.0, 3.0, 5.0, 6.0, 8.0, 12.0, 14.0, 24.0 and 48.0 hours post administration, which were stored in heparinized tubes and centrifuged for 10 minutes at 3,500 rpm. The plasma samples were stored at −20° C. until analysis. The Beagles dogs were fed 2 hours after administration.
50 μL of Beagles dog plasma, obtained at various time points after administration, 20 μL of internal standard solution and 150 μL of methanol was added to result in protein precipitation. Then the mixture was mixed for 1 minute using a vortexer and centrifuged for 5 minutes at 11,000 rpm. 50 μL of the supernatant was analyzed by HPLC-UV.
The compartmental model of pharmacokinetics was fitted for the test compounds and the major pharmacokinetic parameters were calculated in which Cmax and tmax were the actually measured values.

[2] = Pharmacokinetics assay in rats; type: in vivo, SD rats
Summary of the method: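 SD rats, half male and half female, dosed intragastrically with compound suspended at 5 mg/mL (as free acid) in 1% sodium carboxymethyl cellulose; fed 2 h post-dose. Plasma concentrations over time were measured by HPLC-UV. Parameters came from a compartmental fit, with Cmax and tmax as observed values.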

[3] = 5 mg/kg, intragastric, 5 mg/kg (as free acid)
[4] = SD rats, intragastric, 50 mg/Kg (as free acid), 50 mg/kg
[5] = intragastric, 5 mg/kg (as free acid), 5 mg/kg

Compound	Vd/F [1, 3] [L/kg]	AUC [1, 3] [ng·h/mL]	CL/F [1, 3] [mL/min/kg]	half-life [1, 3] [h]	MRT [1, 3] [h]	Cmax [1, 3] [ng/mL]	Tmax [1, 3] [h]	Area Under Curve AUC [2, 4] [ng·h/mL]	Clearance CL/F [2, 4] [mL/min/kg]	Half-Life t½ [2, 4] [h]	Plasma Conc. Cmax [2, 4] [ng/mL]	Time to peak Tmax [2, 4] [h]	other results
CC1=NN(c2ccc3c(c2)CCCC3)C(=O)/C1=N\Nc1cccc(-c2ccc(C(=O)O)o2)c1O [Example 12, (Z)-5-(2-hydroxy-3-{N′-[3-methyl-5-oxo-1-(5,6,7,8-tetrahydro-naphthalen-2-yl)-1,5-dihydro-pyrazol-4-ylidene]-hydrazino}-phenyl)-furan-2-carboxylic acid bis-(trometamol)]	4.86	11000	11	6.86	11.6	811	0.5	58500 ± 23800	16.7 ± 8.4	5.1 ± 2.41	17800 ± 10300	1.38 ± 1.11	
CC1=NN(c2ccc3c(c2)CCCC3)C(=O)/C1=N\Nc1cccc(-c2ccc(C(=O)O)o2)c1O.NCCO.NCCO [Example 7, (Z)-5-(2-hydroxy-3-{N′-[3-methyl-5-oxo-1-(5,6,7,8-tetrahydro-naphthalen-2-yl)-1,5-dihydro-pyrazol-4-ylidene]-hydrazino}-phenyl)-furan-2-carboxylic acid bis-(ethanolamine)]	5.72	12200	8.3	8.24	13.3	985	1.2						pharmacokinetics, in words ([1]; among the four salts): obviously superior in pharmacokinetics; Vd/F ([2]; both sexes, SD, rat, plasma, po, 50 mg/kg, SD rats, intragastric, 50 mg/Kg (as free acid), read-out: Apparent Distribution Volume Vz/F): 2.48 ± 0.92 L/kg; AUC ([2]; both sexes, SD, rat, plasma, po, 50 mg/kg, SD rats, intragastric, 50 mg/Kg (as free acid), read-out: Area Under Curve AUC): 469000 ± 274000 ng·h/mL; CL/F ([2]; both sexes, SD, rat, plasma, po, 50 mg/kg, SD rats, intragastric, 50 mg/Kg (as free acid), read-out: Clearance CL/F (converted)): 2.92 mL/min/kg; half-life ([2]; both sexes, SD, rat, plasma, po, 50 mg/kg, SD rats, intragastric, 50 mg/Kg (as free acid), read-out: Half-Life t½ (converted)): 13.9 ± 6.07 h; MRT ([2]; both sexes, SD, rat, plasma, po, 50 mg/kg, SD rats, intragastric, 50 mg/Kg (as free acid), read-out: Mean Residence Time MRT): 13.3 ± 5.12 h; Cmax ([2]; both sexes, SD, rat, plasma, po, 50 mg/kg, SD rats, intragastric, 50 mg/Kg (as free acid), read-out: Plasma Conc. Cmax): 74100 ± 34500 ng/mL; Tmax ([2]; both sexes, SD, rat, plasma, po, 50 mg/kg, SD rats, intragastric, 50 mg/Kg (as free acid), read-out: Time to peak Tmax): 1.75 ± 0.5 h; pharmacokinetics and bioavailability, in words ([2]; rats, comparing to the free acid): good pharmacokinetic characteristics
CC1=NN(c2ccc3c(c2)CCCC3)C(=O)/C1=N\Nc1cccc(-c2ccc(C(=O)O)o2)c1O [Example 8, (Z)-5-(2-hydroxy-3-{N′-[3-methyl-5-oxo-1-(5,6,7,8-tetrahydro-naphthalen-2-yl)-1,5-dihydro-pyrazol-4-ylidene]-hydrazino}-phenyl)-furan-2-carboxylic acid bis-(choline)]								352000 ± 586000	15.4 ± 16.88	10.6 ± 9.02	36200 ± 46200	1.38 ± 1.11	Area Under Curve AUC [1, 5]: 7910 ng·h/mL; Clearance CL/F [1, 5]: 14.6 mL/min/kg; Half-Life t1/2 [1, 5]: 7.67 h; Plasma Conc. Cmax [1, 5]: 600 ng/mL; Time to peak Tmax [1, 5]: 0.5 h
